Results: patent US11865182B2, “Product and process for employing GC7 (N1-guanyl-1,7-diaminoheptane) based antigen binding conjugates in cancer therapy” (priority 2017, dated 2024)

Test system: bi-lateral subcutaneous tumors derived from 779E cells
Assay: in-vivo analysis of ADCs cytotoxic effect in subcutaneous mouse model (loss of GFP fluorescence signal, IVIS imaging)
Settings: nude mice, 779E subcutaneous tumors, tail vein injection, after 12 days
Method: After purification via gel chromatography, where the cytotoxicity effect of the drug on the eIF5A positive tumor cell compared to eIF5A negative cells was determined by measuring the loss of fluorescence signal of the GFP tagged tumor cells after administration of the ADC in vivo via tail vein injection in mice using an IVIS Spectrum in vivo imaging system.

N=C(N)NCCCCCCCN [GC7, N1-guanyl-1,7-diaminoheptane]
tumor growth inhibition: 0.4%
